Experimental data as given in patent publication US5786333A, “Platelet aggregation inhibitors” (COR Therapeutics, Inc., priority 1995, dated 1998).
Read-outs that look alike come from different tables or passages of the source. Where a SMILES comes first, the peptide text is derived from it. Bridges are numbered along the chain shown (N, C = ends).

Assays:
[1] = tested on: open chest dog; test: Folts model of thrombosis in dog coronary artery (cyclic flow reductions); type: in vivo
Method: A. Initiation of cyclic flow reductions (CFRs) in open chest dog. An occluder placed on the left anterior descending (LAD) coronary artery of a 20 kg dog, as previously described was performed.

[2] = biological target: T1, GP IIb-IIIa (Homo sapiens, UniProt P05106+P08514); test: Fibrinogen/GP IIb-IIIa plate binding assay; settings: for differential inhibition of fibrinogen/GP IIb-IIIa binding as compared to vitronectin/vitronectin receptor binding: plate assays, FIG. 30; for inhibition of binding of fibrinogen to GP IIb-IIIa (in words): plate assay
T1 construct: Purified platelet GP IIb-IIIa receptor was prepared as described by Fitzgerald, L. A., et al; from tissue; host or cells: platelets
Method: In the assay, GP IIb-IIIa, prepared in purified form, for example as described by Fitzgerald, L. A., et al., Anal Biochem (1985) 151:169-177, incorporated herein by reference, is coated onto a solid support such as beads, test tubes, or microtiter plates. The coated support is then contacted with fibrinogen and with the test material and incubated for a sufficient time to permit maximal binding of fibrinogen to the immobilized GP IIb-IIIa. Fibrinogen is typically provided at a concentration of about 5-50 nM and the test material can, if desired, be added at a series of dilutions. Typical incubations are 2-4 hr at 35° C., the time and temperature being interdependent.
After incubation, the solution containing the fibrinogen and test material is removed and the level of binding of fibrinogen measured by quantitating bound fibrinogen to GP IIb-IIIa. Any suitable means of detection may be used, but it is convenient to employ labeled fibrinogen, for example using radioactive, fluorescent or biotinylated labels. Such methods are well known and need not be elaborated here.
In this case, percent inhibition may be calculated using the amount of Fg bound in the control as representing the basis, so that [formula] Other measures of inhibition effectiveness, such as IC50, may also be used.
Purified platelet GP IIb-IIIa receptor was prepared as described by Fitzgerald, L. A., et al., Anal Biochem (1985) 151:169-177. Vitronectin receptor was prepared as described by Smith, J. W., J Biol Chem (1988) 263:18726-18731. After purification, the receptors were stored in 0.1% Triton X-100 at 0.1-1.0 mg/ml.
The receptors were coated to the wells of 96-well flat-bottom ELISA plates (Linbro EIA-Plus microtiter plate, Flow Laboratories) after diluting 1:200 with a solution of […], 150 mM NaCl, 1 mM CaCl2, pH 7.4, to reduce the Triton X-100 concentration to below its critical micellar concentration and adding an aliquot of 100 ul to each well. The wells were all allowed to incubate overnight at 4° C., and then aspirated to dryness. Additional sites were blocked by the addition of bovine serum albumin (BSA) at 35 mg/ml in the above buffer for 2 hr at 30° C. to prevent nonspecific binding. The wells were then washed once with binding buffer ([…] Tris-HCl, 100 mM NaCl, 2 mM CaCl2, 1 mg/ml BSA).
The corresponding ligands (fibrinogen, von Willebrand Factor, or vitronectin) were labeled with ^125 I or conjugated to biotin using commercially available re-agents and standard protocols. The labeled ligands were added to the receptor-coated wells at final concentration of 10 nM (100 ul/well) and incubated for 3 h at 30° C. in the presence or absence of the test samples. After incubation, the wells are aspirated to dryness and bound ligand is quantitated.
For ^125 I-labeled ligands, the protein is solubilized with 250 ul SDS. For biotinylated ligands, the bound protein is detected by the addition of antibiotin antibody conjugated to alkaline phosphatase followed by addition of substrate (p-nitrophenyl phosphate), and determination of the optical density of each well at 405 nm.
Sixty-eight crude, lyophilized snake venoms obtained from either Sigma Chemical Company (St. Louis, Mo.) or Miami Serpentarium Labs (Salt Lake City, Utah) were dissolved at 1 mg/ml in buffer (50 mM Tris, 100 mM NaCl, 0.02% azide, 2 mM CaCi2). One ml aliquots of the solutions were subjected to ultrafiltration through Centrocon-10 (YM membrane) microconcentrators (Amicon, Danvers, Mass.). The filtrates were used as test samples in the receptor/ligand assay of paragraph A using the GP IIb-IIIa/fibrinogen system, and detecting binding using biotinylated fibrinogen.

[3] = biological target: human platelets (Homo sapiens, UniProt P05106+P08514); test: ADP-induced human platelet aggregation in platelet rich plasma; type: cell-based
Method: In these assays, washed platelets are combined with fibrinogen, Ca^+2 and the material to be tested.
Platelet rich plasma (PRP) was obtained from a healthy human volunteer. Aggregation was induced by the addition of 4 uM ADP to 0.5 ml PRP in an aggregometer (Chrono-log Corp.).
Fractions were concentrated to one-half their original volume using a Speed-Vac concentrator (Savant) followed by lyophilization. Samples were then reconstituted in 1 ml distilled water and aliquots (10-50 ul) assayed for their ability to inhibit human platelet aggregation in platelet-rich plasma induced by 20 uM ADP using a whole blood aggregometer (Chrono-Log Corp., Havertown, Pa.).

[4] = tested on: M21 melanoma cells; test: M21 melanoma cell attachment to vitronectin; type: cell-based; settings: for inhibition of M21 melanoma cell attachment to vitronectin (in words): 35S-methionine labelled cells, vitronectin-coated plates
Method: M21 melanoma cells, which express high levels of the vitronectin receptor, were metabolically labelled with ^35 S-methionine, and then added to 24--well tissue culture plates coated with vitronectin. An incubation period of 1 hr at 37° C. was allowed for cell attachment, and this was followed by a wash to remove non-adherent cells. After washing, the adherent cells were solubilized, and the supernatants placed in a liquid scintillation counter. The fraction of cells remaining adherent was calculated by dividing the cpm in the solubilized supernatants by the cpm in the total number of cells added to each well. The effects of purifed snake venom peptides and synthetic cyclic peptides on cell adhesion was determined by including them with the M21 cells during the incubation period.
M21 melanoma cells were labelled with ^35 S-methionine, and then added to vitronectin-coated plates in the presence of the indicated concentrations of purified snake venom peptides. Cell attachment was measured by solubilizing the cells remaining after an incubation and wash, as described in Section C, on page 40.

[5] = biological target: T2, vitronectin receptor (Homo sapiens, UniProt P05106+P06756); test: Vitronectin/vitronectin receptor plate binding assay
T2 construct: Vitronectin receptor was prepared as described by Smith, J. W., J Biol Chem (1988) 263:18726-18731; from tissue; the cited method uses human placenta (own knowledge)
T2 sequence (P06756 31-889 limits assumed): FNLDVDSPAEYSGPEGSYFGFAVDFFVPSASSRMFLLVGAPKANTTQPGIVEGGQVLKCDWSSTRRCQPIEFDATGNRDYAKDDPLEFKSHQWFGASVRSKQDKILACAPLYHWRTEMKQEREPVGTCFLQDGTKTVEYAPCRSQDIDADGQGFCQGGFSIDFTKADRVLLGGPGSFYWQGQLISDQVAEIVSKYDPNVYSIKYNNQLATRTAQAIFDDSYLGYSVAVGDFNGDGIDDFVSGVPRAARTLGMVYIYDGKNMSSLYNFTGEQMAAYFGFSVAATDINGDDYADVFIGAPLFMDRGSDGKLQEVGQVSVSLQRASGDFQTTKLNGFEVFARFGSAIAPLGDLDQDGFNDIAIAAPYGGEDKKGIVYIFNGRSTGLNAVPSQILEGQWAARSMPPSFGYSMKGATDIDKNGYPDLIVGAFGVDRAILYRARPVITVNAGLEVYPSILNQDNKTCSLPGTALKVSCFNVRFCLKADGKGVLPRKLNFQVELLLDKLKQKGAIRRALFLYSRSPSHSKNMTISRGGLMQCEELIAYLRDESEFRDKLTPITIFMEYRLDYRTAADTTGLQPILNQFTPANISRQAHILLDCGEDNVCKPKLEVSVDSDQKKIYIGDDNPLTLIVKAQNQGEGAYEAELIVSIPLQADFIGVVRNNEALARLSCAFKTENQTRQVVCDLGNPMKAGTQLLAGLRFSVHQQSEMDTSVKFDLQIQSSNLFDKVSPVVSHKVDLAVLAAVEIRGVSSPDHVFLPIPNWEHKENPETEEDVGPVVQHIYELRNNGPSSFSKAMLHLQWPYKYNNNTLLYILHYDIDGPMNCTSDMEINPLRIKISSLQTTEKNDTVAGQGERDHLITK
T2 sequence (P06756 891-1048 partner limits assumed): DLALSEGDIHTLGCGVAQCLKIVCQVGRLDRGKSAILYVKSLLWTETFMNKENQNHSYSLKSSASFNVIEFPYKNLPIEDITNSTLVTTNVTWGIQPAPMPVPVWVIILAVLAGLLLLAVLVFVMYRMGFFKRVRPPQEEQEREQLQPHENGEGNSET
T2 sequence (P05106 27-788): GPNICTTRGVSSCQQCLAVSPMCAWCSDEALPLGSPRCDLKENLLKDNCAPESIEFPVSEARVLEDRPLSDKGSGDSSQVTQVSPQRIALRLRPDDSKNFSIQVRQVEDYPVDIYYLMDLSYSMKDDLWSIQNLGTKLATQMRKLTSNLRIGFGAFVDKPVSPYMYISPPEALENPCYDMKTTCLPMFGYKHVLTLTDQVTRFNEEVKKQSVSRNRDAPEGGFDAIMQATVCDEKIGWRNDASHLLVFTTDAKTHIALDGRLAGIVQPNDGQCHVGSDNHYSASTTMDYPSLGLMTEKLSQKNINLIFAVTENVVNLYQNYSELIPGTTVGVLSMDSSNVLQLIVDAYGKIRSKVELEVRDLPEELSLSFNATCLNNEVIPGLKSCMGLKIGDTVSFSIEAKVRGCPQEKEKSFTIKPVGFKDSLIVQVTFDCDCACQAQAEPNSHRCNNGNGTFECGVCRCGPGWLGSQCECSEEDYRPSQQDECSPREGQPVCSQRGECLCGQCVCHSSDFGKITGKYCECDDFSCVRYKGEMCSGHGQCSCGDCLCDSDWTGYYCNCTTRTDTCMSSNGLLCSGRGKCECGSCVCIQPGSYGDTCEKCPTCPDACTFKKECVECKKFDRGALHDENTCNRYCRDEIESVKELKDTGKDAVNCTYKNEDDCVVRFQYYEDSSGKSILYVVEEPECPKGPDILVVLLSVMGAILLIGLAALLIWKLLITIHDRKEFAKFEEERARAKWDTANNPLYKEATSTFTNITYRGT
Description: The assay systems of the invention further include characterization of the PAI specificity by binding inhibition assays identical to that above but substituting other adhesive proteins for Fg and other receptors for GP IIb-IIIa. In particular, inhibition of the binding of vitronectin to the vitronectin receptor; fibronectin to the fibronectin receptor; fibronectin to GP IIb-IIIa and fibrinogen and/or vWF to GP IIb-IIIa may be assessed. The adhesive protein and receptors for these assays are available in the art.
Purified platelet GP IIb-IIIa receptor was prepared as described by Fitzgerald, L. A., et al., Anal Biochem (1985) 151:169-177. Vitronectin receptor was prepared as described by Smith, J. W., J Biol Chem (1988) 263:18726-18731. […]
The corresponding ligands (fibrinogen, von Willebrand Factor, or vitronectin) were labeled with ^125 I or conjugated to biotin using commercially available re-agents and standard protocols. […] After incubation, the wells are aspirated to dryness and bound ligand is quantitated.
For ^125 I-labeled ligands, the protein is solubilized with 250 ul SDS. For biotinylated ligands, the bound protein is detected by the addition of antibiotin antibody conjugated to alkaline phosphatase followed by addition of substrate (p-nitrophenyl phosphate), and determination of the optical density of each well at 405 nm. […]

[6] = biological target: platelet receptors (Homo sapiens, UniProt P05106+P08514); settings: read-out: IC50 (affinity of interaction with platelet receptors); background art; cited from earlier work
[7] = ADP-induced human platelet aggregation, table of Example 17, read-out: Appr. IC50

Q: Which “effect on cyclic flow reductions (CFRs) in LAD coronary artery” value ([1]; 10 mg infused into a peripheral vein, 20 kg open chest dog, FIG. 36) does the source give for `C[C@H](NC(=O)[C@@H]1CSSC[C@H](NC(=O)CN)C(=O)NCC(=O)N[C@@H](CCCCN)C(=O)NCC(=O)N[C@@H](CC(=O)O)C(=O)N[C@@H](Cc2c[nH]c3ccccc23)C(=O)N2CCC[C@H]2C(=O)N1)C(N)=O` [#3] here?
A: partial ablation of the CFRs

Q: And the “effect on cyclic flow reductions (CFRs) in LAD coronary artery” value ([1]; second infusion of 40 mg into a peripheral vein, open chest dog, FIG. 37)?
A: complete ablation of the CFRs

Q: With `C[C@H](NC(=O)[C@@H]1CSSC[C@H](NC(=O)CN)C(=O)N[C@@H](CCCCN)C(=O)NCC(=O)N[C@@H](CC(=O)O)C(=O)N[C@@H](Cc2c[nH]c3ccccc23)C(=O)N2CCC[C@H]2C(=O)N1)C(N)=O` [#4] (H-GCKGDWPCA-NH2; disulfide 2-8) as the compound, how does the “differential inhibition of fibrinogen/GP IIb-IIIa binding as compared to vitronectin/vitronectin receptor binding” value [2] read?
A: highest differential

Q: Which “platelet aggregation inhibition (in words)” value [3] does the source give for `NCCCC[C@@H]1NC(=O)CNC(=O)[C@@H](N)CSSC[C@@H](C(N)=O)NC(=O)[C@@H]2CCCN2C(=O)[C@H](Cc2c[nH]c3ccccc23)NC(=O)[C@H](CC(=O)O)NC(=O)CNC1=O` [#5] (H-CGKGDWPC-NH2; disulfide 1-8) here?
A: excellent platelet aggregation inhibition activities

Q: And the “differential inhibition of fibrinogen/GP IIb-IIIa binding as compared to vitronectin/vitronectin receptor binding” value [2]?
A: quite specific

Q: Which IC50 [3, 7] does the source give for `C[C@H](NC(=O)[C@@H]1CSSC[C@H](NC(=O)CN)C(=O)NCC(=O)N[C@@H](CCCCN)C(=O)NCC(=O)N[C@@H](CC(=O)O)C(=O)N[C@@H](Cc2c[nH]c3ccccc23)C(=O)N1)C(N)=O` [#6] (H-GCGKGDWCA-NH2; disulfide 2-8) here?
A: > 200 µM

Q: Which results are given for `C[C@H](NC(=O)[C@@H]1CSSC[C@H](NC(=O)CN)C(=O)N[C@@H](CCCCN)C(=O)NCC(=O)N[C@@H](CC(=O)O)C(=O)N[C@@H](Cc2c[nH]c3ccccc23)C(=O)N1)C(N)=O` [#7] (H-GCKGDWCA-NH2; disulfide 2-7)?
A: platelet aggregation inhibition (in words) [3]: excellent platelet aggregation inhibition activities; IC50 ([3]; text of Example 17, read-out: IC50 for ability to inhibit ADP-induced human platelet aggregation): 100 µM; differential inhibition of fibrinogen/GP IIb-IIIa binding as compared to vitronectin/vitronectin receptor binding [2]: quite specific

Q: For `NCCCC[C@@H]1NC(=O)[C@@H](N)CSSC[C@@H](C(N)=O)NC(=O)[C@@H]2CCCN2C(=O)[C@H](Cc2c[nH]c3ccccc23)NC(=O)[C@H](CCC(=O)O)NC(=O)CNC1=O` [#35] (H-CKGEWPC-NH2; disulfide 1-7), which IC50 [3, 7] is on record?
A: > 300 µM

Q: Which “differential inhibition of fibrinogen/GP IIb-IIIa binding as compared to vitronectin/vitronectin receptor binding” value [2] does the source give for `C[C@H](NC(=O)[C@@H]1CSSC[C@H](NC(=O)CN)C(=O)NCC(=O)N[C@@H](CCCCN)C(=O)NCC(=O)N[C@@H](CC(=O)O)C(=O)N[C@@H](Cc2c[nH]c3ccccc23)C(=O)N1)C(N)=O` [Analog 6] (H-GCGKGDWCA-NH2; disulfide 2-8) here?
A: differentially capable

Q: With `CC(=O)N[C@H]1CSSC[C@@H](C(N)=O)NC(=O)[C@H](CC(=O)O)NC(=O)CNC(=O)[C@H](CCCCN)NC1=O` [Analog 8] (Ac-CKGDC-NH2; disulfide 1-5) as the compound, how does the “differential inhibition of fibrinogen/GP IIb-IIIa binding as compared to vitronectin/vitronectin receptor binding” value [2] read?
A: differentially capable

Q: With `C[C@H](NC(=O)[C@@H]1CSSC[C@H](NC(=O)CN)C(=O)NCC(=O)N[C@@H](CCCCN)C(=O)NCC(=O)N[C@@H](CC(=O)O)C(=O)N[C@@H](Cc2c[nH]c3ccccc23)C(=O)N2CCC[C@H]2C(=O)N1)C(N)=O` [Analog #3, G-C-G-K-G-D-W-P-C-A-NH2] as the compound, how does the “inhibition of M21 melanoma cell attachment to vitronectin (in words)” value [4] read?
A: lack of ability

Q: What about the “concentration up to which ineffective on M21 cell attachment to vitronectin” value ([4]; FIG. 32) of the same compound?
A: > 60 µM

Q: Which “inhibition of binding of fibrinogen to GP IIb-IIIa (in words)” value [2] does the source give for `N=C(N)NCCC[C@H](N)C(=O)NCC(=O)N[C@@H](CC(=O)O)C(=O)N[C@@H](Cc1c[nH]c2ccccc12)C(N)=O` [RGDW-NH2, reference compound] (H-RGDW-NH2) here?
A: very similar in activity to cyclic GCGRGDWPCA-NH2

Q: Which results are given for `C[C@H](NC(=O)[C@@H]1CSSC[C@H](NC(=O)CN)C(=O)NCC(=O)N[C@@H](CCCNC(=N)N)C(=O)NCC(=O)N[C@@H](CC(=O)O)C(=O)N[C@@H](Cc2c[nH]c3ccccc23)C(=O)N2CCC[C@H]2C(=O)N1)C(N)=O` [reference compound] (H-GCGRGDWPCA-NH2; disulfide 2-9)?
A: inhibition of M21 melanoma cell attachment to vitronectin (in words) [4]: potent inhibitors of cell attachment; inhibition of M21 melanoma cell attachment to vitronectin (in words) ([4]; listed as cyclic RGD compound): ability

Q: Which “platelet aggregation inhibition (in words)” value [3] does the source give for “ECADGLCCDQCRFLKKGTVCRVAKGDWNDDTCTGQSC- D-C-P-R-N-G-L-Y-G (ECADGLCCDQCRFLKKGTVCRVAKGDWNDDTCTGQSCDCPRNGLYG) [Analog #1]” here?
A: potent inhibitors of platelet aggregation

Q: What about the “inhibition of M21 melanoma cell attachment to vitronectin (in words)” value [4] of the same compound?
A: neither barbourin nor Peptide 1 (truncated barbourin) had a significant effect

Q: Which “inhibition of binding of vitronectin to vitronectin receptor (in words)” value [5] does the source give for “EEPCATGPCCRRCKFKRAGKVCRVAKGDWNNDYCTGKSCDCPRNPWNG (EEPCATGPCCRRCKFKRAGKVCRVAKGDWNNDYCTGKSCDCPRNPWNG) [Analog #2]” here?
A: inability to inhibit

Q: And the “inhibition of binding of fibrinogen to GP IIb-IIIa (in words)” value [2]?
A: ability

Q: For HHLGGAQKAGDV, which IC50 [6] is on record?
A: 10 to 100 µM
